Measured values as given in publication PMC8279416, “Structural Fine-Tuning of Desmuramylpeptide NOD2 Agonists Defines Their In Vivo Adjuvant Activity” (Journal of Medicinal Chemistry, 2021).
Where “and” joins values, the source holds several entries; their conditions need not be identical. Equal entries are not always repeated.

Molecular target: T1, NOD2 (Homo sapiens, UniProt Q9HC29)
T1 construct: host or cells: HEK-Blue NOD2 cells (HEK293-derived)
Assay: HEK-Blue NOD2 cell line reporter assay (NF-κB-inducible SEAP)
Type: cell-based
Conditions: for NOD2 activity at 2 μM (fold increase): NF-κB transcriptional (SEAP) activity relative to 0.1% DMSO; for Decrease of NOD2 agonistic activity/potency by a factor, relative to 1: ratio of EC50 versus compound 1; for NOD2 activation (in words): compound alone
Procedure: To determine the NOD2 agonistic potential of the synthesized desmuramylpeptides at the cellular level, we used the validated and commercially available HEK-Blue NOD2 cell line reporter assay. HEK-Blue NOD2 cells were first treated for 18 h with MDP, 1, or the novel desmuramylpeptides at 2 μM. The NF-κB transcriptional activity measured was normalized to that of the vehicle treated (0.1% DMSO) control HEK-Blue NOD2 cells.
HEK-Blue NOD2 and NOD1 cell line reporter assays are derived from HEK293 cells by cotransfection of the hNOD2 or hNOD1 genes, respectively, and an NF-κB-inducible secreted embryonic alkaline phosphatase (SEAP) reporter gene. Following activation of NOD2 or NOD1, the resulting NF-κB induces production of SEAP, the levels of which can be quantified colorimetrically. […] After 18 h of incubation (37 °C, 5% CO2), secreted embryonic alkaline phosphatase (SEAP) activity was determined spectrophotometrically as absorbance at 630 nm (BioTek Synergy microplate reader; Winooski, VT, U.S.A.). EC50 values were calculated using Prism software (version 9; GraphPad Software, CA, U.S.A.). For determination of specificity, HEK-Blue NOD2 cells (2.5 × 10^5 cells/mL) were first pretreated for 1 h with a 10 μM NOD2 antagonist, before the addition of the compounds (2 μM), with incubation for 18 h. SEAP activity in the supernatants was determined as above. The experiments were run in duplicate and repeated as at least two independent biological replicates.

[1] = HEK-Blue NOD2 cells, 18 h, mean ± SEM
[2] = HEK-Blue NOD2 cells, 18 h, 7 or 8 concentrations 1 nM to 20 μM, mean ± SEM

T1 sequence (Q9HC29 whole entry): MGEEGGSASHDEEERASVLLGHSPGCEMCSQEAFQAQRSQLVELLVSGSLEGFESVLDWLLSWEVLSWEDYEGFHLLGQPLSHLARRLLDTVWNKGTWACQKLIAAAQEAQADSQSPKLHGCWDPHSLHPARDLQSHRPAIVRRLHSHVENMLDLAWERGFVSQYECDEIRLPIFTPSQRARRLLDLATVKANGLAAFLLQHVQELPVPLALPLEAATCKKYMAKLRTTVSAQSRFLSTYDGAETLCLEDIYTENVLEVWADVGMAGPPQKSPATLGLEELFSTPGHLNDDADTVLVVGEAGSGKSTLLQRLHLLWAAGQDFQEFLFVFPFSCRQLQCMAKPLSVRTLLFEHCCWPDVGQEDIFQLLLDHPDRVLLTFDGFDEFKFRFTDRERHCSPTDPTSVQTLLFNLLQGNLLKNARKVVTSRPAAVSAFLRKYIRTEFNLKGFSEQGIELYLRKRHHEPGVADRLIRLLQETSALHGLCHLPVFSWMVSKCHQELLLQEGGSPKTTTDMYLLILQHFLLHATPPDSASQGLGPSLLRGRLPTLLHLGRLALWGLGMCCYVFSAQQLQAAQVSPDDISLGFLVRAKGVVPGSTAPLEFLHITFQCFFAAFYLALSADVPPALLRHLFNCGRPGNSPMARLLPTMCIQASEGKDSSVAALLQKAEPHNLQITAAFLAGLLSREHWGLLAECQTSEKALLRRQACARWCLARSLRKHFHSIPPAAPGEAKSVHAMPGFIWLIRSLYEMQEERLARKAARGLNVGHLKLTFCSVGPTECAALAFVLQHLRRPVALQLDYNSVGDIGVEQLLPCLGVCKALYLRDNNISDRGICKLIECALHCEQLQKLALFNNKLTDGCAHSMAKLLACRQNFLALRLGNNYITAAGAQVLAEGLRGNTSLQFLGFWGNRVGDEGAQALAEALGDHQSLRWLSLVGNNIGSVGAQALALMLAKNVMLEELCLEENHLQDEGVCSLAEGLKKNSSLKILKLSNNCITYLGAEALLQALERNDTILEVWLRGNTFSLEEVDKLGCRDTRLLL

| NOD2 activity at 2 μM (fold increase) [1] | EC50 [2] [µM] | SMILES | further results |
| --- | --- | --- | --- |
| 1.33 ± 0.03 fold increase |  | COc1cc(/C=C/C(=O)NCC(=O)N[C@H](C(=O)N[C@H](CCC(=O)OC(C)(C)C)C(=O)N2CCCC2)C(C)C)ccc1O [Compound 64, tert-Butyl (R)-4-((S)-2-(2-((E)-3-(4-Hydroxy-3-methoxyphenyl)acrylamido)acetamido)-3-methylbutanamido)-5-oxo-5-(pyrrolidin-1-yl)pentanoate] |  |
| 2.64 ± 0.01 fold increase | 0.763 ± 0.088 | CCOC(=O)CC[C@@H](NC(=O)[C@@H](NC(=O)CNC(=O)/C=C/c1ccc(OC)c(OC)c1)C(C)C)C(=O)OCC [Compound 20, Diethyl ((E)-3-(3,4-Dimethoxyphenyl)acryloyl)glycyl-L-valyl-D-glutamate] |  |
| 1.86 ± 0.02 fold increase | 10.2 ± 2.62 | CCOC(=O)[C@@H](CCC(=O)N[C@@H](CCCCN)C(=O)OC)NC(=O)[C@@H](NC(=O)CNC(=O)/C=C/c1ccc(O)c(OC)c1)C(C)C [Compound 41, Methyl ((R)-5-Ethoxy-4-((S)-2-(2-((E)-3-(4-hydroxy-3-methoxyphenyl)acrylamido)acetamido)-3-methylbutanamido)-5-oxopentanoyl)-L-lysinate] | EC50 (HEK-Blue NOD2 cells): 10.2 µM |
| 2.45 ± 0.18 fold increase | 0.542 ± 0.048 | CCOC(=O)CC[C@@H](NC(=O)[C@@H](NC(=O)CNC(=O)/C=C/c1ccc(N)cc1)C(C)C)C(=O)OCC [Compound 24, Diethyl ((E)-3-(4-Aminophenyl)acryloyl)glycyl-L-valyl-D-glutamate] |  |
| 2.71 ± 0.05 fold increase | 0.039 ± 0.001 | CCOC(=O)CC[C@@H](NC(=O)[C@@H](NC(=O)CNC(=O)[C@@H]1C[C@H]1c1ccc(F)c(F)c1)C(C)C)C(=O)OCC [Compound 29b] |  |
| 1.97 ± 0.05 fold increase | 6.16 ± 0.842 | CCOC(=O)CC[C@@H](NC(=O)[C@@H](NC(=O)CNC(=O)CCc1ccc(O)c(OC)c1)C(C)C)C(=O)OCC [Compound 18, Diethyl (3-(4-Hydroxy-3-methoxyphenyl)propanoyl)glycyl-L-valyl-D-glutamate] | EC50 (HEK-Blue NOD2 cells): 6.16 µM; Decrease of NOD2 agonistic activity/potency by a factor, relative to 1: 70 |
| 1.32 ± 0.02 fold increase |  | CONC(=O)CC[C@@H](NC(=O)[C@@H](NC(=O)CNC(=O)/C=C/c1ccc(O)c(OC)c1)C(C)C)C(=O)OC(C)(C)C [Compound 60, tert-Butyl N^2-((E)-3-(4-Hydroxy-3-methoxyphenyl)acryloyl)glycyl-L-valyl-N^5-methoxy-D-glutaminate] |  |
| 2.83 ± 0.06 fold increase | 0.071 ± 0.004 | CCOC(=O)CC[C@@H](NC(=O)[C@@H](NC(=O)CNC(=O)/C=C/c1ccc(C(C)C)cc1)C(C)C)C(=O)OCC [Compound 25, Diethyl ((E)-3-(4-Isopropylphenyl)acryloyl)glycyl-L-valyl-D-glutamate] |  |
| 1.20 ± 0.10 fold increase |  | COc1cc(/C=C/C(=O)NCC(=O)N[C@H](C(=O)N[C@H](CCC(=O)OC(C)(C)C)C(=O)OC(C)(C)C)C(C)C)ccc1O [Compound 56, Di-tert-butyl ((E)-3-(4-Hydroxy-3-methoxyphenyl)acryloyl)glycyl-L-valyl-D-glutamate] | NOD2 activation (in words) (HEK-Blue NOD2 cells): markedly reduced NOD2 activation |
| 1.32 ± 0.02 fold increase |  | CCCCCCCCCCCCCCCCCCOC(=O)CC[C@@H](NC(=O)[C@@H](NC(=O)CNC(=O)/C=C/c1ccc(O)c(OC)c1)C(C)C)C(=O)OCCCCCCCCCCCCCCCCCC [Compound 72, Dioctadecyl ((E)-3-(4-Hydroxy-3-methoxyphenyl)acryloyl)glycyl-L-valyl-D-glutamate] | NOD2 activation (in words) (HEK-Blue NOD2 cells): almost completely abrogated the NOD2 agonistic activity |

More lines, now with the values behind:

| SMILES | NOD2 activity at 2 μM (fold increase) [1] | EC50 [2] [µM] | further results |
| --- | --- | --- | --- |
| CCOC(=O)CC[C@@H](NC(=O)[C@@H](NC(=O)CNC(=O)C1CC1c1ccc(F)c(F)c1)C(C)C)C(=O)OCC (some centres unmarked) [Compound 29] | 2.63 ± 0.10 fold increase | 0.049 ± 0.003 |  |
| CCCCCCCCCCCCCCCCCC(=O)Oc1ccc(/C=C/C(=O)NCC(=O)N[C@H](C(=O)N[C@H](CCC(=O)OC2CCCC2)C(=O)OC2CCCC2)C(C)C)cc1OC [Compound 78, Dicyclopentyl ((E)-3-(3-Methoxy-4-(stearoyloxy)phenyl)acryloyl)glycyl-L-valyl-D-glutamate] | 1.66 ± 0.11 fold increase | 6.16 ± 1.16 | EC50 (HEK-Blue NOD2 cells): 6.16 µM |
| CCOC(=O)CC[C@@H](NC(=O)[C@@H](NC(=O)CNC(=O)[C@H]1C[C@@H]1c1ccc(F)c(F)c1)C(C)C)C(=O)OCC [Compound 29a] | 2.46 ± 0.12 fold increase | 0.066 ± 0.005 |  |
| CCCCCCCCCCCCCCCCCC(=O)Oc1ccc(/C=C/C(=O)NCC(=O)N[C@@H](COCc2ccccc2)C(=O)N[C@H](CCC(=O)OCC)C(=O)OCC)cc1OC [Compound 79, Diethyl O-Benzyl-N-(((E)-3-(3-methoxy-4-(stearoyloxy)phenyl)acryloyl)glycyl)-L-seryl-D-glutamate] | 1.68 fold increase and 1.68 ± 0.03 fold increase |  |  |
| CCCCCCCCCCCCCCCCCC(=O)Oc1ccc(/C=C/C(=O)NCC(=O)N[C@@H](CO)C(=O)N[C@H](CCC(=O)OCC)C(=O)OCC)cc1OC [Compound 80, Diethyl ((E)-3-(3-Methoxy-4-(stearoyloxy)phenyl)acryloyl)glycyl-L-seryl-D-glutamate] | 1.21 fold increase and 1.21 ± 0.06 fold increase |  |  |
| CCCCCCCCCCCCCCCCCC(=O)NCCCC[C@H](NC(=O)CC[C@@H](NC(=O)[C@@H](NC(=O)CNC(=O)/C=C/c1ccc(O)c(OC)c1)C(C)C)C(=O)OCC)C(=O)OC [Compound 82, Methyl N^2-((R)-5-Ethoxy-4-((S)-2-(2-((E)-3-(4-hydroxy-3-methoxyphenyl)acrylamido)acetamido)-3-methylbutanamido)-5-oxopentanoyl)-N^6-stearoyl-L-lysinate] | 2.00 ± 0.03 fold increase | 11.5 ± 3.91 | EC50 (HEK-Blue NOD2 cells): 11.5 µM |
| COc1cc(/C=C/C(=O)NCC(=O)N[C@H](C(=O)N[C@H](CCC(=O)OC2CCCC2)C(=O)OC2CCCC2)C(C)C)ccc1OC(C)=O [Compound 76, Dicyclopentyl ((E)-3-(4-Acetoxy-3-methoxyphenyl)acryloyl)glycyl-L-valyl-D-glutamate] | 2.67 ± 0.25 fold increase | 0.063 ± 0.0002 |  |
| CCOC(=O)CC[C@@H](NC(=O)[C@@H](NC(=O)CNC(=O)C1CC1c1ccc(O)c(OC)c1)C(C)C)C(=O)OCC (stereo partly drawn) [Compound 28, Diethyl (2-(4-Hydroxy-3-methoxyphenyl)cyclopropane-1-carbonyl)glycyl-L-valyl-D-glutamate] | 2.66 ± 0.07 fold increase | 0.369 ± 0.004 | Decrease of NOD2 agonistic activity/potency by a factor, relative to 1: 4 |
| CCOC(=O)CC[C@@H](NC(=O)[C@@H](NC(=O)CNC(=O)CCCc1ccc(O)c(OC)c1)C(C)C)C(=O)OCC [Compound 19, Diethyl (4-(4-Hydroxy-3-methoxyphenyl)butanoyl)glycyl-L-valyl-D-glutamate] | 1.73 ± 0.01 fold increase | 13.9 ± 0.8 | Decrease of NOD2 agonistic activity/potency by a factor, relative to 1: 156 |
| CCCCNC(=O)CC[C@@H](NC(=O)[C@@H](NC(=O)CNC(=O)/C=C/c1ccc(O)c(OC)c1)C(C)C)C(=O)NCCCC [Compound 58, (R)-N^1,N^5-Dibutyl-2-((S)-2-(2-((E)-3-(4-hydroxy-3-methoxyphenyl)acrylamido)acetamido)-3-methylbutanamido)pentanediamide] | 1.30 ± 0.03 fold increase |  |  |
| CCOC(=O)CC[C@@H](NC(=O)[C@H](CO)NC(=O)CNC(=O)/C=C/c1ccc(O)c(OC)c1)C(=O)OCC [Compound 31, Diethyl ((E)-3-(4-Hydroxy-3-methoxyphenyl)acryloyl)glycyl-L-seryl-D-glutamate] | 1.21 fold increase and 1.21 ± 0.08 fold increase | > 20 |  |
| COc1cc(/C=C/C(=O)NCC(=O)N[C@H](C(=O)N[C@H](CCC(=O)N2CCCC2)C(=O)OC(C)(C)C)C(C)C)ccc1O [Compound 62, tert-Butyl (R)-2-((S)-2-(2-((E)-3-(4-Hydroxy-3-methoxyphenyl)acrylamido)acetamido)-3-methylbutanamido)-5-oxo-5-(pyrrolidin-1-yl)pentanoate] | 1.43 ± 0.01 fold increase |  |  |
| CCCCCCCCCCCC(=O)O [lauric acid, reference compound] |  |  | NOD2 activation (in words) (HEK-Blue NOD2 cells): did not show any NOD2 activation alone; Enhancement of the NOD2 agonistic activity of 1 (HEK-Blue NOD2 cells, in combination with 1, data not shown): did not enhance the NOD2 agonistic activity of 1 |
| CCOC(=O)CC[C@@H](NC(=O)[C@H](COCc1ccccc1)NC(=O)CNC(=O)/C=C/c1ccc(O)c(OC)c1)C(=O)OCC [Compound 30, Diethyl O-Benzyl-N-(((E)-3-(4-hydroxy-3-methoxyphenyl)acryloyl)glycyl)-L-seryl-D-glutamate] | 2.04 fold increase and 2.04 ± 0.02 fold increase | 5.56 ± 1.47 | EC50 (HEK-Blue NOD2 cells): 5.56 µM |
